In patent publication US7820689B2, “Methods and compositions for preventing or treating cardiovascular disease” (priority 2006, dated 2010):
Where two headings read alike, the source gives them in different places.

Assays:
apoE-deficient mice = type: in vivo
Experimental: (§1) ApoE-deficient mice were fed with a high cholesterol diet containing 21% fat and 0.15% cholesterol (PMI LabDiet 40097, Richmond, Ind., USA) from 8-17 weeks of age. […] After completing the treatment, blood samples were collected by direct heart puncture when sacrificing the animals. The serum levels of total cholesterol, LDL, HDL, and triglyceride were measured by enzymatic methods using an automatic analyzer (Model 747, Hitachi Ltd. Co., Tokyo, Japan). The aorta was dissected from the aortic valve to the iliac bifurcation. To identify lipid-rich atherosclerotic lesions, the aorta was rinsed in 50% isopropanol for 2 minutes, incubated in 0.67% Oil-Red-O for 15 minutes, and washed by 10% isopropanol for 2 minutes. Using a dissection microscope, the area of each atherosclerotic lesion was measured with Image Pro Plus software (Version 3.0.1; Media Cybernetics, Inc, Silver Spring, Md., USA) and expressed as percentage of atherosclerotic area/total area of the aorta.

microglia = conditions: cited from earlier work
[1] = system: superoxide production in THP-1 cell culture; assay: LPS-induced macrophage superoxide production, lucigenin-enhanced chemiluminescence; type: cell-based, human
Experimental: THP-1 cells were grown in the RPMI-1640 medium containing 10% fetal bovine serum at 37° C. in 5% CO2. The cells were differentiated to macrophages after treatment of the culture with 100 nM PMA for 24 hours. The cell suspension (5×10^5) was added in 0.5 mL into each well of the tissue culture plates. […] LPS was dissolved in sterile water and stored at −70° C. in aliquots. LDL was isolated from human endotoxin-free heparin plasma and was oxidized using CuSO4. In brief, LDL (1 mL, 1 mg/mL) was dialyzed in 500 mL phosphate-buffered saline (PBS, pH 7.4) overnight. Copper sulfate was added to a final concentration of 5 μM, and the LDL was allowed to oxidize at room temperature for 24 hours.
(§2) The supernatants were harvested and the TNF-α, IL-6, and MCP-1 levels were determined by ELISA. Superoxide production in the THP-1 cell culture was measured by lucigenin-enhanced chemiluminescence as described previously (Khadour F H, Panas D, Ferdinandy P, et al. Am J Physiol Heart Circ Physiol, 28:H1108-15 2002). LPS-treated THP-1 cells were treated with PBS containing 1.25 mM lucigenin, and counts were obtained for a 10-minute period in a luminometer (Berthold Technologies, Germany) as relative light units (RLU) emitted. Background counts determined in cell-free preparations were subtracted. Superoxide levels were reported as RLU per 10 minutes and were normalized to the volume (mL) of cell suspension added (i.e., RUL/10 min/mL).
We used lucigenin-enhanced chemiluminescence to assess the DM effect on macrophage superoxide production after stimulation.

[2] = system: IL-6 release from THP-1 cells after oxLDL stimulation; assay: oxLDL-induced IL-6 release in THP-1 macrophage culture (ELISA); type: cell-based, human
Experimental: (§3) THP-1 cells were grown in the RPMI-1640 medium containing 10% fetal bovine serum at 37° C. in 5% CO2. The cells were differentiated to macrophages after treatment of the culture with 100 nM PMA for 24 hours. The cell suspension (5×10^5) was added in 0.5 mL into each well of the tissue culture plates. For each experiment, naloxone was prepared immediately before use. LPS was dissolved in sterile water and stored at −70° C. in aliquots. LDL was isolated from human endotoxin-free heparin plasma and was oxidized using CuSO4. In brief, LDL (1 mL, 1 mg/mL) was dialyzed in 500 mL phosphate-buffered saline (PBS, pH 7.4) overnight. Copper sulfate was added to a final concentration of 5 μM, and the LDL was allowed to oxidize at room temperature for 24 hours.
as §2

C57BL/6 mice = assay: Carotid artery ligation vascular remodeling model, morphometry; type: in vivo; conditions: for neointima/media (N/M) ratio: 28 days after surgery, controls 1.4±0.6; for lumen area / neointima area: 28 days; for lumen area: PBS 12859±7258; for neointima area: PBS 33623±9377
Source text: Adult C57BL/6 mice (8-12 weeks) were anesthetized by intraperitoneal injection of sodium pentobarbital. The left common carotid artery was isolated and ligated completely with a 6-0 silk suture near the carotid bifurcation. […] After completing the treatment the animals were sacrificed and the segment of the left common carotid artery just proximal to the ligation was excised, fixed in 4% paraformaldehyde, and embedded in paraffin. Five transverse sections per animal were cut at 100 μm intervals and stained with hematoxylin-eosin. The borders of the internal lumen, internal elastic lamina (IEL), and external elastic lamina (EEL) were traced on a digitizing board using Meta Imaging Series 5.0 software ([…].). The luminal, IEL, and EEL areas were measured. The neointima area was calculated by subtracting the luminal area from the IEL area, and the media area was calculated by subtracting the IEL area from the EEL area. The total vascular area was represented by EEL area. The ratio of neointima to media area (N/M ratio) was calculated. Average values were obtained from morphometric analysis of each section of the animal.
Data were given as mean±SD. The Mann-Whitney U test was used to compare continuous variables between the two groups. […] All statistical analyses were performed using SPSS 12.0 (SPSS Inc. Chicago, Ill., USA). The statistical significance level was set at P<0.05, two-tailed.

THP-1 cells = assay: MTT cell viability assay; type: cell-based, human; conditions: with or without LPS
Experimental: Cell viability was determined with the 3 (4,5-dimethylthiazol-2-yl) 2,5-diphenyltetrazolium bromide (MTT) assay in each treatment group described above. Briefly, fresh medium was added to cells together with 10% MTT (5 mg/mL). Each plate was maintained at 37° C. for 2 hours and subsequently formazan crystals were dissolved in DMSO. Absorbance was read at a wavelength of 550 nm using a SPECTRAmax PLUS^384 spectrophotometer (Molecular Devices, CA, USA).

[3] = Serum lipid levels in apoE-deficient mice on high cholesterol diet; type: in vivo
Experimental: as §1

[4] = system: IL-6 release from THP-1 cells after LPS stimulation; assay: LPS-induced IL-6 release in THP-1 macrophage culture (ELISA); type: cell-based, human
Experimental: as §3, §2

COc1ccc2c(c1)[C@]13CCCC[C@@H]1[C@H](C2)N(C)CC3 [DM, (+)-3-methoxy-17-methyl-9α,13α,14α-morphinan]
aortic atherosclerotic lesion area (apoE-deficient mice; DM 5 mg/kg/day 10 weeks, P=NS, controls 16.9±4.3): 14.1±5.7% | aortic atherosclerotic lesion area (apoE-deficient mice; DM 10 mg/kg/day 10 weeks, controls 16.9±4.3): 8.2±3.8% | aortic atherosclerotic lesion area (apoE-deficient mice; DM 20 mg/kg/day 10 weeks, controls 16.9±4.3): 5.0±2.0% | aortic atherosclerotic lesion area (apoE-deficient mice; DM 40 mg/kg/day 10 weeks, controls 16.9±4.3): 4.6±3.6% | microglia activation (microglia; 1 μM DM, Liu et al. 2003): could inhibit microglia activation | macrophage superoxide production ([1]; DM 0.01 μM pretreatment, LPS alone 612,000±105,000): 341,000±82,000 RLU/15 min/mL | macrophage superoxide production ([1]; DM 0.1 μM pretreatment, LPS alone 612,000±105,000): 303,000±109,000 RLU/15 min/mL | macrophage superoxide production ([1]; DM 1 μM pretreatment, LPS alone 612,000±105,000): 257,000±45,000 RLU/15 min/mL | IL-6 in medium ([2]; DM 0.01 μM pretreatment, oxLDL alone 2.46±1.20): 1.40 ± 0.58 ng/mL | IL-6 in medium ([2]; DM 0.1 μM pretreatment, oxLDL alone 2.46±1.20): 1.28 ± 0.64 ng/mL | IL-6 in medium ([2]; DM 1 μM pretreatment, oxLDL alone 2.46±1.20): 1.33 ± 0.67 ng/mL | neointima/media (N/M) ratio (C57BL/6 mice; DM 5 mg/kg/day 4 weeks, P=NS): 1.1±0.7 | neointima/media (N/M) ratio (C57BL/6 mice; DM 10 mg/kg/day 4 weeks): 0.7±0.3 | neointima/media (N/M) ratio (C57BL/6 mice; DM 20 mg/kg/day 4 weeks): 0.4±0.2 | neointima/media (N/M) ratio (C57BL/6 mice; DM 40 mg/kg/day 4 weeks): 0.5±0.2 | cell viability (MTT) (THP-1 cells; 0.01, 0.1, or 1 μM DM): no significant changes of the cell viability | total cholesterol, triglyceride, LDL, and HDL levels ([3]; DM treatment for 10 weeks vs controls): no significant differences | IL-6 in medium ([4]; DM 0.01 μM pretreatment, LPS alone 9.53±1.95): 6.22 ± 2.46 ng/mL | IL-6 in medium ([4]; DM 0.1 μM pretreatment, LPS alone 9.53±1.95): 6.21 ± 1.89 ng/mL | IL-6 in medium ([4]; DM 1 μM pretreatment, LPS alone 9.53±1.95): 5.36 ± 1.76 ng/mL

C=CCN1CC[C@]23c4c5ccc(O)c4O[C@H]2C(=O)CC[C@@]3(O)[C@H]1C5 [Naloxone, 17-allyl-4,5α-epoxy-3,14-dihydroxymorphinan-6-one]
aortic atherosclerotic lesion area (apoE-deficient mice; 10 mg/kg/day i.p. 10 weeks, PBS 12.9±6.1): 5.2±3.8% | aortic atherosclerotic lesion area (apoE-deficient mice; 20 mg/kg/day i.p. 10 weeks, PBS 12.9±6.1): 3.4±1.4% | aortic atherosclerotic lesion area (apoE-deficient mice; 25 mg/kg/day i.p. 10 weeks, PBS 12.9±6.1): 1.8±1.2% | neuron protection / microglia activation (microglia; 1 μM naloxone, Liu et al. 2000): could protect neurons through inhibition of microglia activation | macrophage superoxide production ([1]; 0.1 μM pretreatment, LPS alone 817,000±90,000): 364,000±202,000 RLU/10 min/mL | macrophage superoxide production ([1]; 1 μM pretreatment, LPS alone 817,000±90,000): 362,000±24,000 RLU/10 min/mL | IL-6 in medium ([2]; 0.01 μM pretreatment, oxLDL alone 1.51±0.08): 1.05 ± 0.03 ng/mL | IL-6 in medium ([2]; 0.1 μM pretreatment, oxLDL alone 1.51±0.08): 1.01 ± 0.01 ng/mL | IL-6 in medium ([2]; 1 μM pretreatment, oxLDL alone 1.51±0.08): 1.05 ± 0.07 ng/mL | lumen area (C57BL/6 mice; 10 mg/kg/day): 24475±5261 μm^2 | neointima area (C57BL/6 mice; 10 mg/kg/day): 20052±4372 μm^2 | lumen area (C57BL/6 mice; 20 mg/kg/day): 26452±9024 μm^2 | neointima area (C57BL/6 mice; 20 mg/kg/day): 14233±4040 μm^2 | lumen area (C57BL/6 mice; 25 mg/kg/day): 29650±5643 μm^2 | neointima area (C57BL/6 mice; 25 mg/kg/day): 13865±3494 μm^2 | Media area regression coefficient (naloxone) (C57BL/6 mice; Naloxone 10 mg/kg/day): 2950 | Neointima area regression coefficient (naloxone) (C57BL/6 mice; Naloxone 10 mg/kg/day): −13951 | Total area regression coefficient (naloxone) (C57BL/6 mice; Naloxone 10 mg/kg/day): −11000 | Lumen area regression coefficient (naloxone) (C57BL/6 mice; Naloxone 10 mg/kg/day, Area = B1 + B2 (Naloxone) + B3 (Distance (mm))): 12016 | Lumen area regression coefficient (naloxone) (C57BL/6 mice; Naloxone 20 mg/kg/day): 14033 | Media area regression coefficient (naloxone) (C57BL/6 mice; Naloxone 20 mg/kg/day): 10001 | Neointima area regression coefficient (naloxone) (C57BL/6 mice; Naloxone 20 mg/kg/day): −19584 | Total area regression coefficient (naloxone) (C57BL/6 mice; Naloxone 20 mg/kg/day): −9582 | Lumen area regression coefficient (naloxone) (C57BL/6 mice; Naloxone 25 mg/kg/day): 16993 | Media area regression coefficient (naloxone) (C57BL/6 mice; Naloxone 25 mg/kg/day): 8112 | Neointima area regression coefficient (naloxone) (C57BL/6 mice; Naloxone 25 mg/kg/day): −20380 | Total area regression coefficient (naloxone) (C57BL/6 mice; Naloxone 25 mg/kg/day): −12267 | influence of naloxone treatment in regression model of carotid remodeling (C57BL/6 mice; multiple regression, independent of the distance to ligation): had a statistically significant influence on the lumen, neointima, and total vascular areas | cell viability (MTT) (THP-1 cells; 0.01, 0.1, or 1 μM naloxone): no significant changes of the cell viability | total cholesterol, triglyceride, LDL, and HDL levels ([3]; naloxone 10, 20, 25 mg/kg/day i.p. 10 weeks vs PBS): no significant differences | IL-6 in medium ([4]; 0.01 μM pretreatment, LPS alone 5.02±0.14): 3.74 ± 0.31 ng/mL | IL-6 in medium ([4]; 0.1 μM pretreatment, LPS alone 5.02±0.14): 3.28 ± 0.14 ng/mL | IL-6 in medium ([4]; 1 μM pretreatment, LPS alone 5.02±0.14): 3.44 ± 0.48 ng/mL
